Results reported in patent US20230346986A1, “METHODS AND AGENTS FOR THE DETECTION AND TREATMENT OF CANCER” (CASE WESTERN RESERVE UNIVERSITY, priority 2019, published 2023).
pIC50: −log10 of the molar value.

Target: T1, PSMA (Homo sapiens, UniProt Q04609)
T1 construct: endogenous in cells; host or cells: LNcap cells
Experiment: Competition binding assay with 3H-ZJ24 on LNcap cells
Settings: 3H-ZJ24 12 nmol/L, 1 h at 37° C.
Protocol: […] used to test the binding affinity of NPs. Specifically, […] cultured in RPMI1640 medium, harvested, washed with 0.5 mM cold Tris buffer, and divided into 1.5 mL Eppendorf tubes at 5×10^5 cells per tube. […] All the tubes were then centrifuged and cells were washed three times with cold PBS. […] The concentration of ligands required to inhibit 50% of binding (IC50) was determined using GraphPad Prism 3.0.

T1 sequence (Q04609 whole entry): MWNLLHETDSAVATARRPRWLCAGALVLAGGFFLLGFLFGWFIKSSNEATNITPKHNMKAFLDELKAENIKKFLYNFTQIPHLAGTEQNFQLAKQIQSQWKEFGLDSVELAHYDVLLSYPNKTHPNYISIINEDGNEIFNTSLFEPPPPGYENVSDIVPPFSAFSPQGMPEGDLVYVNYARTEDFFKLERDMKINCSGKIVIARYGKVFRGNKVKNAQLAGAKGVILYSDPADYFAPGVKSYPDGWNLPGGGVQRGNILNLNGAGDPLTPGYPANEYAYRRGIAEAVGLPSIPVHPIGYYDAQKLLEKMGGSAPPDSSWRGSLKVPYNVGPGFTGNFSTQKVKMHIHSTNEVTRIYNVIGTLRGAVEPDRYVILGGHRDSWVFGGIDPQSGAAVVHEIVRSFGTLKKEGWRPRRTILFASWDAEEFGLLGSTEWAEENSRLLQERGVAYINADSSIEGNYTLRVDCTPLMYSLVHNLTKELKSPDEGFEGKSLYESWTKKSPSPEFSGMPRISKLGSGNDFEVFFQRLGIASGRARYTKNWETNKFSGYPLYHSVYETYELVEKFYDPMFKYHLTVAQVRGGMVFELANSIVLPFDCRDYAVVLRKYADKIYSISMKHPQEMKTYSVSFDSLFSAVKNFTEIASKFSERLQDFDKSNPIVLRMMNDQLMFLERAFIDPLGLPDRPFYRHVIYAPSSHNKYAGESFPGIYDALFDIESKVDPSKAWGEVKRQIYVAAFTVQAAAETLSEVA

`CSC[C@H](NC(=O)N[C@@H](CCC(=O)O)C(=O)O)C(=O)O` [ZJ24] gave a pIC50 of 8.01.
